Test results taken from patent US8716292B2, “Riminophenazines with 2-(heteroaryl)amino substituents and their anti-microbial activity” (priority 2010, dated 2014).
Values after ≈ are worked out from the molar mass of the structure shown.

System: Mycobacterium tuberculosis H37Rv strains
Assay: In vitro assay for antimicrobial susceptibility (microplate Alamar blue MIC)
Type: cell-based
Details: Mycobacterium tuberculosis, H37RV, 7H9, Alamar blue, inhibition ≧90%; read-out: MIC (μg/mL) against H37Rv

Compound	MIC
CC(C)/N=c1\cc2n(-c3ccc(F)cc3)c3ccccc3nc-2cc1Nc1ncccc1C#N [TBI-1057]	0.015 µg/mL (≈ 0.0334 µM)
COC1CCC(/N=c2\cc3n(-c4ccc(F)c(F)c4)c4ccccc4nc-3cc2Nc2ccc([N+](=O)[O-])cn2)CC1 (stereo not drawn) [TBI-1444, 5-(3,4-Difluorophenyl)-3-(4-methoxycyclohexyl)imino-2-(5-nitro-2-pyridyl)amino-3,5-dihydrophenazine]	0.114 µg/mL (≈ 0.205 µM)

Same assay, conditions: Mycobacterium tuberculosis, H37RV, in vitro, Mycobacterium tuberculosis H37Rv strains; read-out: MIC (μg/mL) against H37Rv

Compound	MIC
COc1ncccc1Nc1cc2nc3ccccc3n(-c3ccc(Cl)cc3)c-2c/c1=N\C1CCN(CC(C)C)CC1 [TBI-442, 5-(4-Chlorophenyl)-3-(N-isobutyl-4-piperidyl)imino-2-(2-methoxy-3-pyridyl)amino-3,5-dihydrophenazine]	0.016 µg/mL (≈ 0.0282 µM)
COc1ncccc1Nc1cc2nc3ccccc3n(-c3ccc(C)cc3)c-2c/c1=N\C1CCC(OC)CC1 (stereo not drawn) [TBI-309, 5-(4-Methylphenyl)-3-(4-methoxycyclohexyl)imino-2-(2-methoxy-3-pyridyl)amino-3,5-dihydrophenazine]	0.06 µg/mL (≈ 0.115 µM)
Cc1ccc(Nc2cc3nc4ccccc4n(-c4ccc(F)cc4)c-3c/c2=N\CC2CCCN(C)C2)cn1 (stereo not drawn) [TBI-902, 5-(4-Fluorophenyl)-3-(N-methyl-3-piperidylmethyl)imino-2-(6-methyl-3-pyridyl)amino-3,5-dihydrophenazine]	0.058 µg/mL (≈ 0.114 µM)
Cc1ccc(Nc2cc3nc4ccccc4n(-c4ccccc4)c-3c/c2=N\C2CCN(C)CC2)cn1 [TBI-069, 5-Phenyl-3-(N-methyl-4-piperidyl)imino-2-(6-methyl-3-pyridyl)amino-3,5-dihydrophenazine]	0.219 µg/mL (≈ 0.461 µM)
CO[C@H]1CC[C@H](/N=c2\cc3n(-c4ccc(F)cc4)c4ccccc4nc-3cc2Nc2ccc(NC(C)=O)nc2)CC1 [TBI-915, 5-(4-Fluorophenyl)-3-(1′,4′-trans-4-methoxycyclohexyl)imino-2-(6-acetamino-3-pyridyl)amino-3,5-dihydrophenazine]	0.211 µg/mL (≈ 0.383 µM)
COc1ncccc1Nc1cc2nc3ccccc3n(-c3ccc(OC(F)(F)F)cc3)c-2c/c1=N\CCN1CCOCC1 [TBI-169, 5-(4-Trifluoromethoxyphenyl)-3-(2-morpholinoethyl)imino-2-(2-methoxy-3-pyridyl)amino-3,5-dihydrophenazine]	0.06 µg/mL (≈ 0.102 µM)
COCC(COC)/N=c1\cc2n(-c3ccc(F)c(F)c3)c3ccccc3nc-2cc1Nc1cccnc1 [TBI-528, 5-(3,4-Difluorophenyl)-3-(1,3-dimethoxyisopropyl)imino-2-(3-pyridyl)amino-3,5-dihydrophenazine]	0.216 µg/mL (≈ 0.431 µM)
FC(F)(F)c1ccc(-n2c3c/c(=N\CCN4CCOCC4)c(Nc4cccnc4)cc-3nc3ccccc32)cc1 [TBI-690, 5-(4-Trifluoromethylphenyl)-3-(2-morpholinoethyl)imino-2-(3-pyridyl)amino-3,5-dihydrophenazine]	0.125 µg/mL (≈ 0.23 µM)
COc1ccc(Nc2cc3nc4ccccc4n(-c4ccccc4)c-3c/c2=N\C2CCCCC2)cn1 [TBI-513, 5-Phenyl-3-cyclohexylimino-2-(6-methoxy-3-pyridyl)amino-3,5-dihydrophenazine]	0.244 µg/mL (≈ 0.513 µM)
Cc1ccc(-n2c3c/c(=N\C4CCC4)c(Nc4cncc(C)c4)cc-3nc3ccccc32)cc1 [TBI-348, 5-(4-Methylphenyl)-3-cyclobutylimino-2-(5-methyl-3-pyridyl)amino-3,5-dihydrophenazine]	0.118 µg/mL (≈ 0.265 µM)
Cc1ccc(-n2c3c/c(=N\C4CC4)c(Nc4cccnc4C)cc-3nc3ccccc32)cc1 [TBI-341, 5-(4-Methylphenyl)-3-cyclopropylimino-2-(2-methyl-3-pyridyl)amino-3,5-dihydrophenazine]	0.014 µg/mL (≈ 0.0324 µM)
COc1ncccc1Nc1cc2nc3ccccc3n(-c3ccc(Cl)c(Cl)c3)c-2c/c1=N\C1CCC1 [TBI-946, 5-(3,4-Dichlorophenyl)-3-cyclobutylimino-2-(2-methoxy-3-pyridyl)amino-3,5-dihydrophenazine]	0.06 µg/mL (≈ 0.116 µM)
Cc1ncccc1Nc1cc2nc3ccccc3n(-c3ccc(F)cc3)c-2c/c1=N\C1CC1 [TBI-1014, 5-(4-Fluorophenyl)-3-cyclopropylimino-2-(2-methyl-3-pyridyl)amino-3,5-dihydrophenazine]	0.025 µg/mL (≈ 0.0574 µM)
